# Results taken from patent US20070276022A1, “Optically Active Carboxamides” (priority 2003, published 2007).
# Experiments:
# Type in all cases: in vivo
# [1] = test system: Podosphaera leucotricha; test: Podosphaera test (apple)/protective; conditions: protective, evaluation 10 days after inoculation
# Protocol: (§1) For the production of an appropriate active compound preparation 1 part by weight of active compound is mixed with the given amount of solvent and emulsifier and the concentrate is diluted to the desired concentration with water.
# (§2) For the investigation for the protective activity young plants are sprayed with the active compound preparation in the amount specified. After drying of the spray coating the plants are inoculated with an aqueous spore suspension of the apple mildew pathogen Podosphaera leucotricha. The plants are then placed in a greenhouse at ca. 23° C. and a relative humidity of ca. 70%.
# (§3) Evaluation is carried out 10 days after the inoculation. A level of activity of 0% corresponds to the level of activity of the control, whereas a level of activity of 100% means that no infestation is observed.
# [2] = test system: Sphaerotheca fuliginea; test: Sphaerotheca test (cucumber)/protective; conditions: protective, evaluation 7 days after inoculation
# Protocol: as §1
# as §2, with “of” for “for”, “young cucumber” for “young”, “Sphaerotheca fuliginea.” for “the apple mildew pathogen Podosphaera leucotricha.”
# Evaluation is carried out 7 days after the inoculation. A level of activity of 0% corresponds to the level of activity of the control, whereas a level of activity of 100% means that no infestation is observed.
# [3] = test system: Venturia inaequalis; test: Venturia test (apple)/protective; conditions: protective, evaluation 10 days after inoculation
# Protocol: as §1
# For the investigation of the protective activity young plants are sprayed with the active compound preparation in the amount specified. After drying of the spray coating the plants are inoculated with an aqueous conidial suspension of the apple scab pathogen Venturia inaequalis then left for 1 day in an incubator at ca. 20° C. and a relative humidity of 100%.
# The plants are then placed in a greenhouse at ca. 21° C. and a relative humidity of ca. 90%.
# as §3
# [4] = test system: Botrytis cinera; test: Botrytis test (bean)/protective; conditions: protective, evaluation 2 days after inoculation
# Protocol: as §1
# For the investigation the protective activity young plants are sprayed with the active compound preparation in the amount specified. After drying of the spray coating 2 small pieces of agar coated with Botrytis cinera are placed on each leaf. The inoculated plants are then placed in a darkened room at ca 20° C. and a relative humidity of 100%.
# The size of the infestation spots on the leaves are evaluated 2 days after the inoculation. A level of activity of 0% corresponds to the level of activity of the control, whereas a level of activity of 100% means that no infestation is observed.
# [5] = test system: Alternaria solani; test: Alternaria test (tomato)/protective; conditions: protective, 50 g/ha, evaluation 3 days after inoculation
# Protocol: as §1
# as §2, with “of” for “for”, “Alternaria solani.” for “the apple mildew pathogen Podosphaera leucotricha.”, “an incubator” for “a greenhouse”, “20°” for “23°”, “100%.” for “ca. 70%.”
# Evaluation is carried out 3 days after the inoculation. A level of activity of 0% corresponds the level of activity of the control, whereas a level of activity of 100% means that no infestation is observed.
smiles,measurement,setting,value
CC(C)C[C@H](C)c1ccccc1NC(=O)c1ccccc1C(F)(F)F [drawing 39],Level of activity in %,[1]; 50 g/ha,100%
CC(C)C[C@@H](C)c1ccccc1NC(=O)c1ccccc1C(F)(F)F [drawing 40],Level of activity in %,[1]; 50 g/ha,20%
CC(C)C[C@H](C)c1ccccc1NC(=O)c1cn(C)cc1C(F)(F)F [drawing 41],Level of activity in %,[1]; 12.5 g/ha,98%
CC(C)C[C@@H](C)c1ccccc1NC(=O)c1cn(C)cc1C(F)(F)F [drawing 42],Level of activity in %,[1]; 12.5 g/ha,28%
Cc1nn(C)c(F)c1C(=O)Nc1ccccc1[C@H](C)CC(C)C [drawing 44],Level of activity in %,[2]; 25 g/ha,7%
Cc1nn(C)c(F)c1C(=O)Nc1ccccc1[C@@H](C)CC(C)(C)C [drawing 45],Level of activity in %,[2]; 25 g/ha,94%
Cc1nn(C)c(F)c1C(=O)Nc1ccccc1[C@H](C)CC(C)(C)C [drawing 46],Level of activity in %,[2]; 25 g/ha,0%
Cc1nn(C)c(F)c1C(=O)Nc1ccccc1[C@@H](C)CC(C)C [drawing 47],Level of activity in %,[2]; 25 g/ha,96%
CC(C)C[C@H](C)c1ccccc1NC(=O)c1ccccc1I [drawing 51],Level of activity in %,[2]; 25 g/ha,85%
CC(C)C[C@@H](C)c1ccccc1NC(=O)c1ccccc1I [drawing 52],Level of activity in %,[2]; 25 g/ha,15%
CC(C)C[C@H](C)c1sccc1NC(=O)c1cn(C)nc1C(F)(F)F [drawing 53],Level of activity in %,[2]; 3.125 g/ha,98%
CC(C)C[C@@H](C)c1sccc1NC(=O)c1cn(C)nc1C(F)(F)F [drawing 54],Level of activity in %,[2]; 3.125 g/ha,35%
CC(C)C[C@H](C)c1ccccc1NC(=O)c1cn(C)cc1C(F)(F)F [drawing 55],Level of activity in %,[2]; 50 g/ha,91%
CC(C)C[C@@H](C)c1ccccc1NC(=O)c1cn(C)cc1C(F)(F)F [drawing 56],Level of activity in %,[2]; 50 g/ha,23%
Cc1nn(C)c(F)c1C(=O)Nc1ccccc1[C@@H](C)CC(C)C [drawing 57],Level of activity in %,[3]; 25 g/ha,100%
Cc1nn(C)c(F)c1C(=O)Nc1ccccc1[C@H](C)CC(C)C [drawing 58],Level of activity in %,[3]; 25 g/ha,21%
Cc1nn(C)c(F)c1C(=O)Nc1ccccc1[C@@H](C)CC(C)(C)C [drawing 59],Level of activity in %,[3]; 25 g/ha,100%
Cc1nn(C)c(F)c1C(=O)Nc1ccccc1[C@H](C)CC(C)(C)C [drawing 60],Level of activity in %,[3]; 25 g/ha,0%
CC(C)C[C@H](C)c1ccccc1NC(=O)c1ccccc1C(F)(F)F [drawing 61],Level of activity in %,[3]; 25 g/ha,100%
CC(C)C[C@@H](C)c1ccccc1NC(=O)c1ccccc1C(F)(F)F [drawing 62],Level of activity in %,[3]; 25 g/ha,0%
CC(C)C[C@H](C)c1ccccc1NC(=O)c1ccccc1I [drawing 63],Level of activity in %,[3]; 25 g/ha,100%
CC(C)C[C@@H](C)c1ccccc1NC(=O)c1ccccc1I [drawing 64],Level of activity in %,[3]; 25 g/ha,16%
CC(C)C[C@H](C)c1sccc1NC(=O)c1cn(C)nc1C(F)(F)F [drawing 65],Level of activity in %,[3]; 3.125 g/ha,100%
CC(C)C[C@@H](C)c1sccc1NC(=O)c1cn(C)nc1C(F)(F)F [drawing 66],Level of activity in %,[3]; 3.125 g/ha,7%
CC(C)C[C@H](C)c1ccccc1NC(=O)c1cn(C)cc1C(F)(F)F [drawing 67],Level of activity in %,[3]; 50 g/ha,100%
CC(C)C[C@@H](C)c1ccccc1NC(=O)c1cn(C)cc1C(F)(F)F [drawing 68],Level of activity in %,[3]; 50 g/ha,20%
Cc1nn(C)c(F)c1C(=O)Nc1ccccc1[C@@H](C)CC(C)C [drawing 69],Level of activity in %,[4]; 250 g/ha,100%
Cc1nn(C)c(F)c1C(=O)Nc1ccccc1[C@H](C)CC(C)C [drawing 70],Level of activity in %,[4]; 250 g/ha,29%
Cc1nn(C)c(F)c1C(=O)Nc1ccccc1[C@@H](C)CC(C)(C)C [drawing 71],Level of activity in %,[4]; 250 g/ha,100%
Cc1nn(C)c(F)c1C(=O)Nc1ccccc1[C@H](C)CC(C)(C)C [drawing 72],Level of activity in %,[4]; 250 g/ha,14%
CC(C)C[C@H](C)c1ccccc1NC(=O)c1ccccc1C(F)(F)F [drawing 73],Level of activity in %,[4]; 250 g/ha,90%
CC(C)C[C@@H](C)c1ccccc1NC(=O)c1ccccc1C(F)(F)F [drawing 74],Level of activity in %,[4]; 250 g/ha,18%
CC(C)C[C@H](C)c1ccccc1NC(=O)c1ccccc1I [drawing 75],Level of activity in %,[4]; 250 g/ha,86%
CC(C)C[C@@H](C)c1ccccc1NC(=O)c1ccccc1I [drawing 76],Level of activity in %,[4]; 250 g/ha,0%
CC(C)C[C@H](C)c1ccccc1NC(=O)c1cn(C)cc1C(F)(F)F [drawing 77],Level of activity in %,[4]; 62.5 g/ha,100%
CC(C)C[C@@H](C)c1ccccc1NC(=O)c1cn(C)cc1C(F)(F)F [drawing 78],Level of activity in %,[4]; 62.5 g/ha,50%
CC(C)C[C@H](C)c1ccccc1NC(=O)c1cn(C)cc1C(F)(F)F [drawing 79],Level of activity in %,[5],83%
CC(C)C[C@@H](C)c1ccccc1NC(=O)c1cn(C)cc1C(F)(F)F [drawing 80],Level of activity in %,[5],30%
